Reference: publication PMC8297771 (PLoS Pathogens, 2021)

Key:
[1] = tested on: HIV-1_89.6 passage 14 viral population (Y99H and A128T); assay: Susceptibility of STP0404-selected viral population, passage 14, in CEMx174 cells; type: cell-based; settings: passage 14 viral population (Y99H and A128T) vs wild type HIV-1_89.6
Protocol: CEM x174 cells infected with HIV primary isolate 89.6 were cultured in the presence of STP0404 at the concentration of IC90 determined earlier. At each passage, cells from original culture in the presence of inhibitor (0.75x10^6 cells) were mixed with equal amount of no-drug control cells to propagate, and viral replication was monitored by the production of p24 antigen in the supernatant. […] The population of drug-induced mutations at each passage mentioned above was determined by sequencing of at least 10 resulting transformants.
CEM x174 cells were infected with cell-free viral supernatant collected during virus resistance assays above. […] The viral stocks were normalized by the amount of p24 capsid antigen, determined to infect CEMx174 cells at approximately 10% of populations (10,000 pg / 10^6 cells). […] Cell-free supernatants were measured for p24 antigen production 5 days post-infection. p89.6 plasmid was applied for Quickchange kit (Invitrogen) to create Y99H single, A128T single, Y99H/A128T double mutants as well as two natural variants (A124N and T125A), and these 89.6 variant viruses were generated by transfecting 293T cells and culturing the produced viruses in CEMx174 cells. The IC50 of STP0404 against respective viruses were analyzed using GraphPad Prism (Version 9) and presented as means ± S.D. of triplicates. […]

[2] = target: T1, IN-RNA binding (His6 tagged IN, HIV-1 TAR RNA) (Human immunodeficiency virus type 1 group M subtype B, UniProt P12497); assay: Alpha Screen inhibition assay for IN binding to RNA; type: biochemical
T1 construct: incubated with 100 nM His6 tagged IN
Protocol: Primary antiviral activity of ALLINIs was observed during virion maturation, where they inhibit IN-RNA interactions, we examined the ability of STP0404 to inhibit recombinant IN binding to synthetic TAR RNA using Alpha screen based assay. Briefly, different concentrations of STP0404 were incubated with 100 nM His6 tagged IN in buffer containing 100 mM NaCl, 1 mM MgCl2, 1 mM DTT, 1mg/mL BSA, 25 mM Tris, pH 7.4 at 4°C for 2 hrs. This mixture was then added to the nickel acceptor beads while biotinylated-TAR RNA was added to the streptavidin donor beads. After 2-hrs incubation at 4°C, the RNA mixture was added to the IN-drug mixture and the reading was taken after 1 hr incubation at 4°C by PerkinElmer Life Sciences Enspire multimode plate reader. The IC50 values were calculated by OriginLab software.

[3] = In vivo pharmacokinetics, summary over rats and dogs; design: species or system SD rats and beagle dogs; settings: Sprague-Dawley (rat), beagle (dog), plasma, range over rats and dogs
Protocol: Study design: […]). Group 1 was dosed with STP0404 at 1 mg/kg by single intravenous administration. Groups 2 to 4 were dosed with STP0404 at 20, 40 and 80 mg/kg, respectively, by single oral administration. The vehicle used for IV study was DMSO: PEG400: […] Blood samples were collected at 0.0833, 0.25, 0.5, 1, 2, 4, 8, 12 (only for PO groups) and 24 hrs post-dose for Groups 1 to 4. STP0404 concentrations in plasma samples were determined by LC-MS/MS. Preclinical Dog pharmacokinetics study (Study no. 400751-2015020201-DPK): A total of 6 male Beagle dogs were divided into two groups (3 animals/group). Following single STP0404 2 mg/kg oral and intravenous administration to Beagle Dogs, STP0404 concentration was determined in plasma, and pharmacokinetic parameters were calculated. […] The concentrations of STP0404 in plasma were determined by using a LC/MS/MS method.

[4] = Safety pharmacology: effects on the cardiovascular system in dogs; type: in vivo; settings: oral 30, 60 and 90 mg/kg
Protocol: Effects on the Respiratory System in Rats (Study no. YL18404). Four groups of eight male rats were given a single oral administration of STP0404 at doses of 100, 300 and 600 mg/kg. STP0404 was administered as a suspension in 0.5% MC in a volume of 10 mL/kg. […] Measurements were conducted at pre-dosing and 0.5, 1, 3, 6 12 and 24 hrs post-dosing, and respiratory rate, tidal volume and minute volume were investigated (INA Research, Japan). Effects on the Central Nervous System in Rats (Study no. YL18405). Four groups of six male rats were given a single oral administration of STP0404 at doses of 0 (vehicle), 100, 300 and 600 mg/kg. The test article was administered as a suspension in 0.5% MC in a volume of 10 mL/kg. […] Blinded observations were conducted pre-dosing and 0.5, 1, 3, 6, 12 and 24 hrs post-dosing on rats body temperature, pupil size, landing foot-splay and grip strength in functional observational battery. Effects on the Cardiovascular System in Dogs (Study no. YL18406). STP0404 at dose levels of 30, 60 and 90 mg/kg were administered orally (by capsules) to four male Beagle dogs in a design with 7-day intervals between doses. Heart rate, blood pressure (systolic, diastolic and mean) and electrocardiographic (ECG) parameters (PR, QT and QTc intervals and QRS duration) were evaluated at pre-dosing and 0.5, 1, 2, 4, 8 and 24 hrs post-dosing. […]

Cc1nc2c(c(C)c(C)n2Cc2cnn(C)c2)c(-c2ccc(Cl)cc2)c1[C@H](OC(C)(C)C)C(=O)O [STP0404]
IC50 fold increase [1]: 61.4 fold
IC50 [2]: 20 ± 3 nM
half-life ([3]; intravenous, oral, read-out: half-life (T1/2)): 180 to 420 min
bioavailability ([3]; po, read-out: oral bioavailability (Ft)): 50 to 93%
safety pharmacology concerns, cardiovascular system [4]: did not induce any safety pharmacology concerns
